Test results published in US20180040391A1, “GAS-INSULATED MEDIUM-OR HIGH-VOLTAGE ELECTRICAL APPARATUS INCLUDING HEPTAFLUOROISOBUTYRONITRILE AND TETRAFLUOROMETHANE” (General Electric Technology GmbH, priority 2015, published 2018).
Like-named read-outs stand apart in the source and are kept apart here.

Experiments:
[1] = fluids of WO 2012/080246; cited from earlier work
[2] = boiling point (ASTM D1120-94); type: physicochemical; conditions: at 1013 hPa
Method: (i) a boiling point of −4.7° C. at 1013 hectopascals (hPa) (boiling point measured in accordance with ASTM D1120-94 “Standard Test Method of Boiling Point of Engine Coolants”);
(i′) a boiling point of −127.8° C. at 1013 hPa (boiling point measured in accordance with ASTM D1120-94);

[3] = saturated vapor pressure of i-C3F7CN and corresponding pressure raised to 20° C.; type: physicochemical
Method: However, since equipment is usually filled with gas at ambient temperature, the pressure to which reference is made in order to fill the equipment with heptafluoroisobutyronitrile is the pressure PTfill that corresponds, at the filling temperature, e.g. 20° C., to the PVS presented by said compound at the lowest utilization temperature Tmin of said equipment. This correspondence is given, for each compound, by the formula: […]
with Tmin expressed in kelvins.
By way of example, the Table II below gives the saturated vapor pressures, referenced PVSi-C3F7CN and expressed in hectopascals, presented by heptafluoroisobutyronitrile at temperatures of 0° C., −5° C., −10° C., −15° C., −20° C., −25° C., −30° C., −35° C., and −40° C., as well as the pressures, referenced P and expressed in hectopascals, which correspond to those saturated vapor pressures raised to 20° C.

SMILES	boiling point [1] [°C]	boiling point [2] [°C]	PVSi-C3F7CN saturated vapor pressure ([3]; 0° C.) [hPa]	Pi-C3F7CN pressure corresponding to the saturated vapor pressure raised to 20° C. ([3]; PVS at 0° C. raised to 20° C.) [hPa]	Pi-C3F7CN pressure corresponding to the saturated vapor pressure raised to 20° C. ([3]; PVS at −5° C. raised to 20° C.) [hPa]	Pi-C3F7CN pressure corresponding to the saturated vapor pressure raised to 20° C. ([3]; PVS at −10° C. raised to 20° C.) [hPa]	Pi-C3F7CN pressure corresponding to the saturated vapor pressure raised to 20° C. ([3]; PVS at −15° C. raised to 20° C.) [hPa]	Pi-C3F7CN pressure corresponding to the saturated vapor pressure raised to 20° C. ([3]; PVS at −20° C. raised to 20° C.) [hPa]	Pi-C3F7CN pressure corresponding to the saturated vapor pressure raised to 20° C. ([3]; PVS at −25° C. raised to 20° C.) [hPa]	Pi-C3F7CN pressure corresponding to the saturated vapor pressure raised to 20° C. ([3]; PVS at −30° C. raised to 20° C.) [hPa]	Pi-C3F7CN pressure corresponding to the saturated vapor pressure raised to 20° C. ([3]; PVS at −35° C. raised to 20° C.) [hPa]	Pi-C3F7CN pressure corresponding to the saturated vapor pressure raised to 20° C. ([3]; PVS at −40° C. raised to 20° C.) [hPa]	PVSi-C3F7CN saturated vapor pressure ([3]; −5° C.) [hPa]	PVSi-C3F7CN saturated vapor pressure ([3]; −10° C.) [hPa]	PVSi-C3F7CN saturated vapor pressure ([3]; −15° C.) [hPa]	PVSi-C3F7CN saturated vapor pressure ([3]; −20° C.) [hPa]	PVSi-C3F7CN saturated vapor pressure ([3]; −25° C.) [hPa]	PVSi-C3F7CN saturated vapor pressure ([3]; −30° C.) [hPa]	PVSi-C3F7CN saturated vapor pressure ([3]; −35° C.) [hPa]	PVSi-C3F7CN saturated vapor pressure ([3]; −40° C.) [hPa]
O=C(C(F)(F)F)C(F)(C(F)(F)F)C(F)(F)F [fluoroketone C5]	23																			
O=C(C(F)(F)C(F)(F)F)C(F)(C(F)(F)F)C(F)(F)F [fluoroketone C6]	49																			
N#CC(F)(C(F)(F)F)C(F)(F)F [i-C3F7CN, 2,3,3,3-tetrafluoro-2-trifluoromethyl propanenitrile]		−4.7	1177	1264	1058	877	720	583	466	368	286	218	968	788	634	504	395	305	232	173
